Active and inactive are the calls of the source. The rule behind the calls is not given here.
Experiments:
Spodoptera exigua [1] = experiment: Insecticidal activity against Spodoptera exigua larvae assessed as inhibition of larval growth at 5 umol/g of diet administered through compound containing diet after 7 days; type: functional
Spodoptera exigua [2] = experiment: Insecticidal activity against young Spodoptera exigua larvae assessed per ug of diet; type: functional
Spodoptera exigua [3] = experiment: Insecticidal activity against older Spodoptera exigua larvae assessed per ug of diet; type: functional
Spodoptera exigua [4] = experiment: Insecticidal activity against Spodoptera exigua larvae assessed as induction of larval mortality at 5 umol/g of diet administered through compound containing diet after 7 days; type: functional, organism-based

Structure (SMILES)	growth inhibition (GI) (Spodoptera exigua [1])	LC50 (Spodoptera exigua [2]) [µM]	LC50 (Spodoptera exigua [3]) [µM]	Activity (Spodoptera exigua [4])
CCCCCCCCCCCCCCCC1CCCO1 (stereo not drawn) [2-PENTADECYLTETRAHYDROFURAN]	45%	–	–	–
CCCCCCCCCCCCCCCCCCC1CCCO1 (stereo not drawn)	Active	–	–	–
CCCCCCCCCCCCCCCCCc1ccco1 [2-(HEPTADECYL)FURAN]	93%	≥ 2	> 3	Active
CCCCCCCCCCCCCCCCCC1CCCO1 (stereo not drawn) [2-(HEPTADECYL)TETRAHYDROFURAN]	59%	–	–	–
CCCCCCCCCCCCCCC1CCCO1 (stereo not drawn)	inactive	–	–	–
CCCCCCCCCCCCCCCc1ccco1	98%	≥ 2	> 3	Active
CCCCCCCCCCCCCCCCC1CCCO1 (stereo not drawn)	inactive	–	–	–
